According to patent US9206206B2, “Oxidized lipid compounds and uses thereof” (Vascular Biogenics Ltd., priority 2008, dated 2015):
Values joined by “and” are separate entries in the source; they are usually repeats but may differ in a detail not shown here. Equal entries are not always repeated. “Also recorded” adds a separate entry of the source.

Legend:
ApoE KO mice = assay: In vivo atherosclerotic lesion assay, ApoE KO mice; conditions: 1 mg/mouse (40 mg/kg) orally, 5 treatments every other day, sacrificed by the end of 8 weeks, aortic sinus
Experimental: (§1) In Vivo Atherosclerotic Lesion Assay:
Alternatively, 14-16-week old ApoE KO mouse were orally administered with 0.2 ml of PBS or PBS with an indicated amount of the tested compound, once a day, every other day, for 5 treatments, and sacrificed by the end of 8 weeks.
(§2) The quantification of atherosclerotic lesions was done by calculating the lesion size in the aortic sinus as previously described [Paigen et al., Quantitative assessment of atherosclerotic lesions in mice. Atherosclerosis 1987; 68:231-240] with a few modifications. Briefly, the heart and the aorta were removed from the animals, and the peripheral fat was cleaned carefully. The hearts were embedded in Optimal Cutting Temperature (OCT) gel and frozen. Aortic sinus lesion was determined from 3-8 Oil red O-stained serial sections (10 μm thick), throughout the aortic sinus (400 μm). The lesion area was calculated using a computer analyzing method (Image Pro Plus software [version 4.5.1.29], Medical Cybernetics Corporation).

[1] = test system: tyrosine phosphorylation in bone marrow-derived cells; assay: Tyrosine phosphorylation assay in bone marrow-derived cells (Western blot); format: cell-based, mouse
Experimental: (§3) Tyrosine Phosphorylation Assay: Tyrosine phosphorylation in macrophages or bone marrow-derived cells (BMDCs) of mice was assayed. Mouse primary macrophages were isolated from the peritoneum of 7-8 week old C57BL/6 female mice following thioglycollate stimulation. […] Mouse primary bone marrow-derived cells were isolated by flushing bone marrow out of the femur and tibia of female SJL mice using cold RPMI-1640. […] Cells were then washed, resuspended in the same buffer and depleted of B and T cells on a Midi-Macs separation unit through a LD or LS column (Miltenyi Biotech). […] The medium was replaced every other day. […] Proteins with phosphorylated tyrosine were then observed by Western blot, using a monoclonal anti-phosphotyrosine antibody. Western blotting for ERK1/2 or α-tubulin was performed as a control for protein loading.

[2] = test system: tyrosine phosphorylation in primary macrophages; assay: Tyrosine phosphorylation assay in primary macrophages (Western blot); format: cell-based, mouse
Experimental: as §3

[3] = test system: mouse peritoneal macrophages; assay: In vitro toxicity assay; format: cell-based; conditions: for LD50: crystal violet cell number
Experimental: Thioglycollate-elicited mouse peritoneal macrophages were washed, counted and seeded (2×10^5 to 3×10^5 cells per well in 24-well plates) in triplicate wells in medium containing RPMI-1640, L-glutamine, 10% FBS and antibiotics (penicillin/streptomycin). After a recovery period of 24 hours, the tested compound (or controls) was added to the cell medium at doses of 2, 10, 20, 50, 100 or 150 μg/ml, keeping the added volume equal in all treatments by complementing the volume with solvent.
Following addition of the compounds, the cells were incubated for an additional 24 hours, after which the cells were washed, fixed with a solution of 10% methanol/10% acetic acid and stained with crystal violet (0.4% in 20% ethanol). Cell numbers were measured by determining optical density at 595 nm. Cells incubated with vehicle (PBS with 1% ethanol) were used as a control, to which cell numbers in treated samples were normalized.
Data are presented as mean±standard deviation. Statistical significance relative to vehicle-treated cells was calculated using a student's t-test, with p-values of less than 0.05 being considered as indicating statistical significance.

IL12/23 p40 = assay: In vitro IL12/23p40 production assay; format: cell-based, mouse; conditions: bone marrow-derived cells
Experimental: In Vitro IL12/23p40 Production Assay:
Bone marrow derived cells (BMDCs) were obtained from the femur and tibia of female C57BL mice, cultured, and seeded at a concentration of 10^6 cells/ml 5-6 days post-culturing, as described hereinabove for the tyrosine phosphorylation assay.
The tested compound was then added to the cells for 1 hour at a concentration of 1, 2.5, 5, 10 or 20 μg/ml. The cells were activated for IL12/23p40 production by incubation for 24 hours with 10 μg/ml peptidoglycan (PGN). Cytokine production from the supernatant was measured by ELISA. Activated cells without the tested compound were used as the control.

IL12/23 p40 mRNA = assay: In vitro IL12/23 p40 mRNA expression assay; format: cell-based, mouse; conditions: CD11c+ dendritic cells, 20 μg/ml, 10 μg/ml peptidoglycan, 2-4 hours following administration
Experimental: In Vitro IL12/23 p40 mRNA Expression Assay:
Bone marrow-derived cell cultures were prepared as described hereinabove. On days 5-6 post culturing, the cell cultures were enriched for CD11c+ dendritic cells (>90%) with mouse CD11c microbeads over MS or LS columns (Miltenyi Biotech). CD11c+ dendritic cells were stimulated for 1, 2 and 3 hours with 10 μg/ml peptidoglycan alone or in the presence of 20 μg/ml of the tested compound added 1 hour before activation. RNA was extracted from cells using RNeasy mini kit (Qiagen, Valencia, Calif.). For cDNA preparation, 1 μg of RNA was combined with Oligo dT for 10 minutes at 70° C., 1st strand buffer. Dithiothreitol and dNTP and super-script reverse transcriptase (Invitrogen, Carlsbad, Calif.) were added for 50 minutes at 42° C. and the reaction was ended by incubation for an additional 15 minutes at 70° C. All real time PCR reactions were performed using LightCycler Taqman master (Roche Diagnostics, Mannheim, Germany) and run on the LightCycler machine (Roche). Ready sets of probe with primers were used for IL12/23 p40 and GAPDH assays (Applied Biosystems, assays #Mm01288992_m1 and Mm99999915_g1, respectively) with the latter served to normalize RNA levels. 20 μg/ml CI-201 and phosphatidylcholine (PC) were used as positive and negative controls respectively.

LDL-RD male mice = assay: In vivo atherosclerotic lesion assay, LDL-RD mice; conditions: 1 mg/mouse (60 mg/kg) orally, 5 treatments every other day, western diet 5 weeks, aortic sinus
Experimental: as §1
12-16-week old LDL-RD male mice were orally administered with 0.2 ml of PBS or PBS with an indicated amount of the tested compound, once a day, every other day, for 5 treatments. The mice were challenged with western diet for 5 weeks and then sacrificed.
as §2

[4] = peritoneal macrophages, 24 hours, doses 2-150 μg/ml
[5] = compound 1, 2.5, 5, 10 or 20 μg/ml for 1 hour, then 10 μg/ml peptidoglycan 24 hours, ELISA
[6] = peritoneal macrophages, 24 hours

SMILES: CCCCCCCCCCCCCCCCOCC(COP(=O)([O-])OCC[N+](C)(C)C)OCCCCC(OC)OC (stereo not drawn) [diMeAc, 1-hexadecyl-2-(5′,5′-dimethoxypentyl)-glycero-3-phosphocholine]
- decrease of atherosclerotic lesion area as compared to the control (PBS) (ApoE KO mice): 23%

SMILES: CCCCCCCCCCCCCCCCOCC(COP(=O)([O-])OCC[N+](C)(C)C)OCCCCCCC(=O)O (racemic) [racemic CI-203, 1-hexadecyl-2-(6-carboxy)hexanyl-glycero-3-phosphocholine]
- phosphotyrosine levels ([1]; 20 μg/ml (33 μM)): caused a reduction in phosphotyrosine levels

SMILES: CCCCCCCCCCCCCCCCOCC(COP(=O)([O-])OCC[N+](C)(C)C)OCCCCC(=O)OC (stereo not drawn) [CI-208, 1-hexadecyl-2-(4-methylcarboxy)butyl-glycero-3-phosphocholine]
- phosphotyrosine levels ([2]; 20 ng/ml): causes a reduction in phosphotyrosine levels, which is stronger than the reduction caused by treatment with 20 ng/ml of the CI-201 control
- dose at which toxicity was detected in only one experiment ([3]; mouse, 24 h): 20 µg/mL

SMILES: CCCCCCCCCCCCCCCCOCC(COP(=O)([O-])OCC[N+](C)(C)C)OCCCC(=O)O (stereo not drawn) [CI-205, 1-hexadecyl-2-(3-carboxy)propyl-glycero-3-phosphocholine]
- phosphotyrosine levels ([2]; 20 μg/ml, 10 minutes): causes reduction in phosphotyrosine levels
- dose at which (significant) toxicity was detected [3, 4]: 100 µg/mL
- dose at which toxicity was detected in only one experiment ([3]; peritoneal macrophages, 24 hours, only one of two experiments): 20 to 50 µg/mL

SMILES: CCCCCCCCCCCCCCCCOCC(COP(=O)(O)OCCN)OCCCC(=O)O (stereo not drawn) [CI-206, 1-hexadecyl-2-(3-carboxy)propyl-glycero-3-phosphoethanolamine]
- phosphotyrosine levels ([2]; 20 μg/ml, 10 minutes): causes reduction in phosphotyrosine levels
- dose at which (significant) toxicity was detected ([3]; mouse, 24 h): ≥ 50 µg/mL

SMILES: CCCCCCCCCCCCCCCCCCOCC(COP(=O)(O)OCCN)OCCCCC(=O)O (stereo not drawn) [CI-216, 1-octadecyl-2-(4-carboxy)butyl-glycero-3-phosphoethanolamine]
- phosphotyrosine levels ([2]; 10 μg/ml, 10 minutes): induction of tyrosine phosphorylation
- phosphotyrosine levels ([2]; 20 μg/ml, 10 minutes): reduction in phosphotyrosine levels
- production of IL12/23 p40 (IL12/23 p40; 20 μg/ml): inhibited production of IL12/23 p40 by bone marrow-derived cells

SMILES: CCCCCCCCCCCCCCCCOCC(COP(=O)(O)OCCNC(=O)CCCC(=O)O)OCCCCC(=O)O (stereo not drawn) [CI-210, 1-hexadecyl-2-(4-carboxy)butyl-glycero-3-phosphoethanolamine-N-glutaric acid]
- phosphotyrosine levels ([2]; 20 μg/ml, 10 minutes): induced an increase in phosphotyrosine levels
- production of IL12/23 p40 (IL12/23 p40; [5]): inhibited production of IL12/23 p40 by bone marrow-derived cells in a dose-dependent manner
- dose at which (significant) toxicity was detected ([3]; mouse, 24 h): ≥ 100 µg/mL
- dose at which significant toxicity was observed ([3]; mouse, 24 h): ≥ 156.6 µM
- LD50 [3, 6]: approximately 150 μg/ml and ~235 μM

SMILES: CCCCCCCCCCCCCCCCOC[C@H](COP(=O)([O-])OCC[N+](C)(C)C)OCCCCC(=O)O [CI-201, 1-hexadecyl-2-(4-carboxy)butyl-sn-glycero-3-phosphocholine, reference compound]
- phosphotyrosine levels ([2]; 20 ng/ml): reduction
- phosphotyrosine levels ([2]; 10 μg/ml, 10 minutes): caused an increase in phosphotyrosine levels
- phosphotyrosine levels ([2]; 20 μg/ml, 10 minutes): caused a decrease in phosphotyrosine levels; also recorded: caused a reduction in phosphotyrosine levels
- IL12/23 p40 mRNA expression (IL12/23 p40 mRNA): inhibition by CI-202 was comparable to the inhibition by CI-201

SMILES: CCCCCCCCCCCCOCC(COP(=O)([O-])OCC[N+](C)(C)C)OCCCCC(=O)O (stereo not drawn) [CI-209, 1-dodecyl-2-(4-carboxy)butyl-glycero-3-phosphocholine]
- phosphotyrosine levels ([2]; 20 μg/ml, 10 minutes): induced an increase in phosphotyrosine levels
- production of IL12/23 p40 (IL12/23 p40; [5]): inhibited production of IL12/23 p40 by bone marrow-derived cells in a dose-dependent manner
- LD50 [3, 6]: above 150 μg/ml and > 286 μM
- toxicity within the range of tested doses ([3]; peritoneal macrophages, 24 hours, up to 150 μg/ml): toxicity of CI-209 was not observed at any of the tested doses

SMILES: CCCCCCCCCCCCCCCCOCC(COP(=O)([O-])OCC[N+](C)(C)C)OCCCCCCC(=O)O (stereo not drawn) [CI-203, 1-Hexadecyl-2-(6-carboxy)hexanyl-glycero-3-phosphocholine]
- production of IL12/23 p40 (IL12/23 p40; [5]): inhibited production of IL12/23 p40 by bone marrow-derived cells in a dose-dependent manner
- phosphotyrosine levels ([1]; 1 μg/ml (1.7 μM)): no apparent effect
- dose at which (significant) toxicity was detected [3, 4]: 100 µg/mL

SMILES: CCCCCCCCCCCCCCCCOCC(COP(=O)([O-])OCC[N+](C)(C)C)OCCCCC(OCC)OCC (stereo not drawn) [diEtAc, 1-hexadecyl-2-(5′,5′-diethoxypentyl)-glycero-3-phosphocholine]
- dose at which (significant) toxicity was detected ([3]; mouse, 24 h): ≥ 20 µg/mL
- dose at which toxicity was detected in only one experiment ([3]; mouse, 24 h): 10 µg/mL

SMILES: CCCCCCCCCCCCCCCCOC[C@H](COP(=O)([O-])OCC[N+](C)(C)C)OCCCCC(O)CO (stereo partly drawn) [di-OH, 1-Hexadecyl-2-(5,6-dihydroxy)hexanyl-glycero-3-phosphocholine]
- decrease of atherosclerotic lesion area as compared to the control (PBS) (LDL-RD male mice): 25%
- dose at which (significant) toxicity was detected [3, 4]: ≥ 20 µg/mL

SMILES: CCCCCCCCCCCCCCCCOC[C@H](COP(=O)([O-])OCC[N+](C)(C)C)OCCCCCCC(=O)O [(R)-CI-203, (R)-1-hexadecyl-2-(6-carboxy)hexanyl-sn-glycero-3-phosphocholine]
- phosphotyrosine levels ([1]; 20 μg/ml (33 μM)): caused a reduction in phosphotyrosine levels
